Data as given in patent US12559504B2, “Benzotriazole derivative” (UBE CORPORATION, priority 2019, dated 2026).

Tests used:
[1] = target: T1, GST fusion human Keap1 (amino acid residue: 325-624) protein (Homo sapiens, UniProt Q14145); assay: Keap1-Nrf2 binding inhibition test (fluorescence polarization); settings: compound concentration of 100 nM; read-out: inhibition rate
T1 construct: GST fusion human Keap1 (amino acid residue: 325-624) protein; purchased Protein tech Ag0779
In short: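 Fluorescence polarization with FITC-labelled Nrf2 peptide (FITC-Ahx-LDEETGEFL-NH2) and GST-human Keap1 (325-624) in 20 mM Tris pH 7.5, 150 mM NaCl, 0.05% Tween 20, 5 mM DTT, BSA; 30 min at room temperature, ex 482/em 530 nm. Percent inhibition at 100 nM compound, Keap1-free wells = 100%.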

[2] = test system: NQO1; assay: NQO1 enzyme induction test (in vitro) in Hepa1c1c7 cells; assay type: cell-based; settings: Mus musculus, Hepa-1c1c7, 48 h, concentration to elevate the NQO1 activity by 1.5 times, about 48 hours, read-out: EC150
In short: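 Mouse Hepa1c1c7 cells treated about 48 h with compound (0.1% DMSO final), then lysed. NQO1 activity read as MTT reduction at 540 nm with menadione substrate, 5 min at room temperature, and corrected for cell number by CellTiter-Glo. EC150 is the concentration raising NQO1 activity 1.5-fold.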

[3] = test system: NQO1; assay: NQO1 expression induction test in mouse kidney (single administration); assay type: in vivo; settings: Mus musculus, po, 6 h, Dose 20 mg/kg, BALB/c mouse kidney, 6 hours after administration, ratio to control group
In short: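 Female BALB/c mice received a single oral dose of compound in 0.5% methylcellulose, with untreated mice as controls. Six hours later, left-kidney NQO1 mRNA was measured by SYBR real-time RT-PCR normalised to GAPDH. Induction was expressed as the ratio of mean treated to mean control expression.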

[4] = Metabolism test using human liver microsome fractions; assay type: in vitro ADME; settings: human liver microsomes, test compound 10 μmol/L, NADPH and UDP-glucuronic acid, 37° C.
In short: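 Human or monkey liver microsomes (1 mg protein) with NADPH-regenerating system plus UDP-glucuronic acid/UGT mix, 37 °C; compound at 10 μmol/L final. Samples at 0–30 min quenched in acetonitrile, UV-HPLC; elimination rate (pmol/min/mg-P) from linear slope of residual amount over time.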

T1 sequence (Q14145 325-624): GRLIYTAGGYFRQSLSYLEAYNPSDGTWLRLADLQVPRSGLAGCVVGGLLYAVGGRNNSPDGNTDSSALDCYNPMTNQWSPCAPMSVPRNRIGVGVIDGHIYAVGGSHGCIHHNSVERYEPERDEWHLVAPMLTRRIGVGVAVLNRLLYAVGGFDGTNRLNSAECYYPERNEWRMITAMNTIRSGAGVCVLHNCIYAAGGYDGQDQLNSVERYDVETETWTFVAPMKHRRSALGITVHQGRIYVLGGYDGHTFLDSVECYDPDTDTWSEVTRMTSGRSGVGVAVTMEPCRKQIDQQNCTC

CC[C@@H]1CN(Cc2cc(C(c3ccc4c(nnn4C)c3C)C(C)(C)C(=O)O)ccc2C)Cc2cc3c(cc2O1)SCC3 (stereo partly drawn) [Example 73-(b), 3-(1,4-dimethyl-1H-benzo[d][1,2,3]triazol-5-yl)-3-(3-(((R)-2-ethyl-2,3,7,8-tetrahydrothieno[2′,3′:4,5]benzo[1,2-f][1,4]oxazepin-4(5H)-yl)methyl)-4-methylphenyl)-2,2-dimethylpropanoic Acid]
inhibition at 0.1 µM [1]: ≥ 50%
EC (1.5-fold NQO1 activity) [2]: 0.005 to 0.05 µM
fold induction at 20 mg/kg [3]: > 6
Human metabolic rate [4]: C (150≤metabolic rate<200 pmol/min/mg protein)

CC[C@@H]1CN(Cc2cc(C(c3ccc4c(nnn4C)c3C)C(C)(C)C(=O)O)ccc2C)Cc2cc3c(cc2O1)S(=O)(=O)CC3 (stereo partly drawn) [Example 74-(b), 3-(1,4-dimethyl-1H-benzo[d][1,2,3]triazol-5-yl)-3-(3-(((R)-2-ethyl-9,9-dioxide-2,3,7,8-tetrahydrothieno[2′,3′:4,5]benzo[1,2-f][1,4]oxazepin-4(5H)-yl)methyl)-4-methylphenyl)-2,2-dimethylpropanoic Acid]
inhibition at 0.1 µM [1]: ≥ 50%
EC (1.5-fold NQO1 activity) [2]: 0.0005 to 0.005 µM
fold induction at 20 mg/kg [3]: 3 to 6
Human metabolic rate [4]: B (100≤metabolic rate<150 pmol/min/mg protein)

Cc1ccc(C(c2ccc3c(nnn3C)c2C)C(C)(C)C(=O)O)cc1CN1Cc2cc3ncccc3cc2O[C@H](C)C1 (stereo partly drawn) [Example 75-(b), 3-(1,4-dimethyl-1H-benzo[d][1,2,3]triazol-5-yl)-2,2-dimethyl-3-(4-methyl-3-(((R)-2-methyl-2,3-dihydro-[1,4]oxazepino[7,6-g]quinolin-4 (5H)-yl)methyl)phenyl) propanoic Acid]
inhibition at 0.1 µM [1]: ≥ 50%
EC (1.5-fold NQO1 activity) [2]: 0.0005 to 0.005 µM
fold induction at 20 mg/kg [3]: > 6
Human metabolic rate [4]: E (metabolic rate≥250 pmol/min/mg protein)

Cc1ccc(C(c2ccc3c(nnn3C)c2C)C(C)(C)C(=O)O)cc1CN1Cc2cc3ncccc3cc2OC2(CC2)C1 (stereo not drawn) [Example 76-(b), 3-(3-((3′H-spiro[cyclopropane-1,2′-[1,4]oxazepino[7,6-g]quinoline]-4′ (5′H)-yl)methyl)-4-methylphenyl)-3-(1,4-dimethyl-1H-benzo[d][1,2,3]triazol-5-yl)-2,2-dimethylpropanoic Acid]
inhibition at 0.1 µM [1]: ≥ 50%
EC (1.5-fold NQO1 activity) [2]: 0.0005 to 0.005 µM
fold induction at 20 mg/kg [3]: > 6
Human metabolic rate [4]: B (100≤metabolic rate<150 pmol/min/mg protein)

CC[C@@H]1CN(Cc2cccc(C(c3ccc4c(nnn4C)c3C)C(C)(C)C(=O)O)c2)Cc2cc3ncccc3cc2O1 (stereo partly drawn) [Example 79-(b), 3-(1,4-dimethyl-1H-benzo[d][1,2,3]triazol-5-yl)-3-(3-(((R)-2-ethyl-2,3-dihydro-[1,4]oxazepino[7,6-g]quinolin-4(5H)-yl)methyl)phenyl)-2,2-dimethylpropanoic Acid]
inhibition at 0.1 µM [1]: ≥ 50%
EC (1.5-fold NQO1 activity) [2]: 0.005 to 0.05 µM
fold induction at 20 mg/kg [3]: 3 to 6
Human metabolic rate [4]: E (metabolic rate≥250 pmol/min/mg protein)

CC[C@@H]1CN(Cc2cc(C(c3ccc4c(nnn4C)c3C)C(C)(C)C(=O)O)ccc2Cl)Cc2cc3ncccc3cc2O1 (stereo partly drawn) [Example 80-(b), 3-(4-chloro-3-(((R)-2-ethyl-2,3-dihydro-[1,4]oxazepino[7,6-g]quinolin-4 (5H)-yl)methyl)phenyl)-3-(1,4-dimethyl-1H-benzo[d][1,2, 3]triazol-5-yl)-2,2-dimethylpropanoic Acid]
inhibition at 0.1 µM [1]: ≥ 50%
EC (1.5-fold NQO1 activity) [2]: 0.005 to 0.05 µM
fold induction at 20 mg/kg [3]: > 6
Human metabolic rate [4]: D (200≤metabolic rate<250 pmol/min/me protein)

CC[C@@H]1CN(Cc2cc(C(c3ccc4c(nnn4C)c3C)C(C)(C)C(=O)O)ccc2OC)Cc2cc3ncccc3cc2O1 (stereo partly drawn) [Example 81-(b), 3-(1,4-dimethyl-1H-benzo[d][1,2,3]triazol-5-yl)-3-(3-(((R)-2-ethyl-2,3-dihydro-[1,4]oxazepino[7,6-g]quinolin-4 (5H)-yl)methyl)-4-methoxyphenyl)-2,2-dimethylpropanoic Acid]
inhibition at 0.1 µM [1]: ≥ 50%
EC (1.5-fold NQO1 activity) [2]: 0.005 to 0.05 µM
fold induction at 20 mg/kg [3]: 3 to 6
Human metabolic rate [4]: A (metabolic rate<100 pmol/min/mg protein)

CC[C@@H]1CN(Cc2cc(C(c3ccc4c(c3)nnn4C)C(C)(C)C(=O)O)ccc2C)Cc2cc3ncccc3cc2O1 (stereo partly drawn) [Example 82-(b), 3-(3-(((R)-2-ethyl-2,3-dihydro-[1,4]oxazepino[7,6-g]quinolin-4 (5H)-yl)methyl)-4-methylphenyl)-2,2-dimethyl-3-(1-methyl-1H-benzo[d][1,2,3]triazol-5-yl) propanoic Acid]
inhibition at 0.1 µM [1]: ≥ 50%
EC (1.5-fold NQO1 activity) [2]: 0.005 to 0.05 µM
fold induction at 20 mg/kg [3]: > 6
Human metabolic rate [4]: B (100≤metabolic rate<150 pmol/min/mg protein)

CC[C@@H]1CN(Cc2cc(C(c3ccc4c(nnn4C)c3C)C3(C(=O)O)CCC3)ccc2C)Cc2cc3ncccc3cc2O1 (stereo partly drawn) [Example 84-(b), 1-((1,4-dimethyl-1H-benzo[d][1,2,3]triazol-5-yl) (3-(((R)-2-ethyl-2,3-dihydro-[1,4]oxazepino[7,6-g]quinolin-4 (5H)-yl)methyl)-4-methylphenyl)methyl)cyclobutane-1-carboxylic Acid]
inhibition at 0.1 µM [1]: ≥ 50%
EC (1.5-fold NQO1 activity) [2]: 0.0005 to 0.005 µM
fold induction at 20 mg/kg [3]: > 6
Human metabolic rate [4]: C (150≤metabolic rate<200 pmol/min/mg protein)
